Assay [1] concerns the target T1, Aurora-2 (Homo sapiens, UniProt O14965).
T1 sequence (O14965 1-403): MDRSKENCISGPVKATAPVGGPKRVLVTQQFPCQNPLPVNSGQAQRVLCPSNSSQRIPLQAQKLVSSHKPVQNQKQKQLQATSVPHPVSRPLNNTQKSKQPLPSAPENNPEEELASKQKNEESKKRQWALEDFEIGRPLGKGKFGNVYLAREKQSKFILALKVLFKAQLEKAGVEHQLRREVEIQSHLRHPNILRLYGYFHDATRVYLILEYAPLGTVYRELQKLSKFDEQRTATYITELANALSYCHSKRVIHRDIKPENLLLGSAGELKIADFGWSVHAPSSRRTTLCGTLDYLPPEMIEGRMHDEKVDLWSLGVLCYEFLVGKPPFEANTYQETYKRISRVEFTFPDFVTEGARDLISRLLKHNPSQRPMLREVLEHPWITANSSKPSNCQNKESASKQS
The assay can be described thus: Inhibition assay of Aurora-2 activity (SPA). Format: biochemical. Particulars: 10 μM ATP, 60 minutes at room temperature. As to the method:
The inhibiting activity and the potency of selected compounds is determined through a method of assay based on the use of the SPA technology (Amersham Pharmacia Biotech). The assay consists of the transfer of radioactivity labelled phosphate moiety by the kinase to a biotinylated substrate. The resulting 33P-labelled biotinylated product is allowed to bind to streptavidin-coated SPA beads (biotin capacity 130 pmol/mg), and light emitted was measured in a scintillation counter.
Inhibition Assay of Aurora-2 Activity
Kinase reaction: 8 μM biotinylated peptide (4 repeats of LRRWSLG), 10 μM ATP (0.5 uCi P^33γ-ATP), 7.5 ng Aurora 2, inhibitor in a final volume of 30 μl buffer (HEPES 50 mM pH 7.0, MgCl2 10 mM, 1 mM DTT, 0.2 mg/ml BSA, 3 μM orthovanadate) were added to each well of a 96 U bottom well plate. After 60 minutes at room temperature incubation, reaction was stopped and biotinylated peptide captured by adding 100 μl of bead suspension.
Stratification: 100 μl of CsCl2 5 M were added to each well and let stand 4 hour before radioactivity was counted in the Top-Count instrument.
IC50 determination: inhibitors were tested at different concentrations ranging from 0.0015 to 10 μM. Experimental data were analyzed by the computer program GraphPad Prizm using the four parameter logistic equation: y=bottom+(top−bottom)/(1+10^((log IC50−x)*slope)) where x is the logarithm of the inhibitor concentration, y is the response; y starts at bottom and goes to top with a sigmoid shape.

The test system of assay [2] is HCT-116. The assay can be described thus: In vitro cell cycle analysis. Particulars: HCT-116, 200 nM, treated for 24 hours. Format: cell-based, human. The protocol: In Vitro Cell Cycle Analysis
The human colon cancer cell line HCT-116 was seeded at 5000 cells/cm2 in 24 wells plate (Costar) and cultured as mentioned above. Cells in their exponential phase of growth were treated for 24 hours with different concentrations of compound. Also, culture medium supernatant was collected to avoid loss of detached apoptotic or mitotic cells. Thereafter, cells were washed using PBS and detached by 0.05% (w/v) trypsin, 0.02% (w/v) EDTA (Gibco). Trypsin activity was stopped using culture medium. Adherent and non-adherent cell fractions were pooled and centrifuged at 2000 rpm for 10 minutes. Cells were re-suspended in PBS and counted using a Multisizer 3 cell counter (Beckman Coulter). For fixation, ethanol was added (70%, v/v) and cells were kept at −20° C. overnight.
One million fixed cells were centrifuged at 2000 rpm for 5 minutes and washed with PBS and subsequently stained for 1 hour at room temperature in the dark by adding 200 µl: 25 µg/ml propidium iodide (Sigma) and 15 ug/ml RNAse A (Sigma), 0.001% (v/v) Nonidet P40 (Sigma) in sodium citrate (0.1% w/v, pH 7.5). Samples were analyzed by flow cytometry at 488 nm excitation (FACSCalibur, Beckton Dickinson) using Cell Quest 3.0 software (Beckton Dickinson). Typically 10000 events (activating doubles discriminate module DDM and gating only single cells) were collected and cell cycle profiles were recorded using CellQuest (Verity Software). Cell Cycle distribution of the population was calculated using a modified model in Modfit 3.1 software (Verity Software) and expressed in % G0/G1, S, G2/M and polyploidy.

The subject of assay [3] is HCT-116. Put plainly: In vitro cell proliferation assay. In kind it is cell-based. Particulars: Homo sapiens; HCT-116, 72 hours of treatment; read-out: Cell Antiproliferation IC50. The protocol: In Vitro Cell Proliferation Assay
The human colon cancer cell line HCT-116 was seeded at 5000 cells/cm2 in 24 wells plate (Costar) using F12 medium (Gibco) supplemented with 10% FCS (EuroClone, Italy) 2 mM L-glutamine and 1% penicillin/streptomycin and maintained at 37° C., 5% CO2 and 96% relative humidity. The following day, plates were treated in duplicates with 5 ul of an appropriate dilution of compounds starting from a 10 mM stock in DMSO. Two untreated control wells were included in each plate. After 72 hours of treatment, medium was withdrawn and cells detached from each well using 0.5 ml of 0.05% (w/v) Trypsin, 0.02% (w/v) EDTA (Gibco). Samples were diluted with 9.5 ml of Isoton (Coulter) and counted using a Multisizer 3 cell counter (Beckman Coulter). Data were evaluated as percent of the control wells: % of CTR=(Treated−Blank)/(Control−Blank).
IC50 values were calculated by LSW/Data Analysis using Microsoft Excel sigmoidal curve fitting.

We go through five compounds from patent US7582628B2, “Pyrrolo[3,4-c]pyrazole derivatives active as kinase inhibitors, process for their preparation and pharmaceutical compositions comprising them” (Pfizer Italia S.r.l., priority 2003, dated 2009).

Regarding `CO[C@@H](C(=O)N1Cc2[nH]nc(NC(=O)c3ccc(N4CCN(C)C(C)C4)cc3)c2C1)c1ccccc1` (stereo partly drawn) [Compound (5), 4-(3,4-dimethylpiperazin-1-yl)-N-{5-[(2R)-2-methoxy-2-phenylethanoyl]-1,4,5,6-tetrahydropyrrolo[3,4-c]pyrazol-3-yl}benzamide], the IC50 in assay [1] worked out at 18 nM; in assay [3], 50 nM. In addition, in assay [2], the “Cell Cycle block (% G2/M + polyploidy at 200 nM)” value worked out at 90%.
For `C[C@@H](C(=O)N1Cc2[nH]nc(NC(=O)c3ccc(N4CCN(C)CC4)cc3)c2C1)c1ccccc1` [Compound (11), N-{5-[(2R)-2-methyl-2-phenylethanoyl]-1,4,5,6-tetrahydropyrrolo[3,4-c]pyrazol-3-yl}-4-(4-methylpiperazin-1-yl)benzamide], in that order: 63 nM, 17 nM and 90%.
Taken in the same sequence, the figures for `CN1CCN(c2ccc(C(=O)Nc3[nH]nc4c3CN(C(=O)Cc3ccccc3)C4)cc2)CC1` [Reference compound, N-{5-phenylacetyl-4,6-dihydropyrrolo[3,4-c]pyrazol-3-yl}-4-(4-methylpiperazino)benzamide, reference compound] were 140 nM, 220 nM and 33%.
Consider `CO[C@@H](C(=O)N1Cc2[nH]nc(NC(=O)c3ccc(N4CCN(C)CC4)cc3)c2C1)c1ccccc1` [Compound (1), N-{5-[(2R)-2-methoxy-2-phenylethanoyl]-1,4,5,6-tetrahydropyrrolo[3,4-c]pyrazol-3-yl}-4-(4-methylpiperazin-1-yl)benzamide], for which the “Cell Cycle block (% G2/M + polyploidy at 200 nM)” value in assay [2] was determined as 90%. In addition, in assay [3], the IC50 was determined as 31 nM.
Consider `CO[C@@H](C(=O)N1Cc2[nH]nc(NC(=O)c3ccc(N4CCCCC4)cc3)c2C1)c1ccccc1` [Compound (6), N-{5-[(2R)-2-methoxy-2-phenylethanoyl]-1,4,5,6-tetrahydropyrrolo[3,4-c]pyrazol-3-yl}-4-piperidin-1-ylbenzamide], for which the figures for the IC50 in assay [1] and in assay [3] were 37 nM and 30 nM, respectively. Moreover, the “Cell Cycle block (% G2/M + polyploidy at 200 nM)” value in assay [2] is recorded as 90%.
